{"source": "patent US9980903B2", "about": "“Gastric retentive oral dosage form with restricted drug release in the lower gastrointestinal tract” (Depomed, Inc., priority 2001, dated 2018)", "origin": "cited, not measured here", "conditions": "presently available immediate release dosage form"}
{"smiles": "O=C(O)c1cn(C2CC2)c2cc(N3CCNCC3)c(F)cc2c1=O", "note": "[Ciprofloxacin, 1-cyclopropyl-6-fluoro-1,4-dihydro-4-oxo-7-(1-piperazinyl)-3-quinolinecarboxylic acid]", "values": [{"measurement": "time at which maximum serum concentration is attained after dosing", "result": "1 to 2", "unit": "h"}]}
